US9309187B2, “EP2 receptor agonists” (TAKEDA GMBH, priority 2012, dated 2016)
Read-outs that look alike come from different tables or passages of the source.

Legend:
[1] = test system: TNFalpha release in human peripheral blood mononuclear cells (PBMC) stimulated with LPS; assay: Inhibition of LPS induced TNFalpha release in human PBMCs; assay type: cell-based; conditions: 1 ng/mL LPS, 24 hours, reported as range bins, read-out: Inhibition of LPS induced TNFalpha release in human PBMCs pIC30 (-log IC30)
Protocol: Method for Measuring the Inhibition of TNFalpha Release in Human Peripheral Blood MononuClear Cells (PBMC) Stimulated with LPS:
Assay was performed with some modifications of the method described by Hatzelmann and Schudt (Hatzelmann and Schudt 2001, J. Pharmacol. Exp. Therapeutics 297: 267-279) and the protocol “drawing of venous blood from healthy volunteers for in vitro studies” was approved by the ethics committee of the Landesärztekammer Baden Württemberg in Stuttgart. Peripheral blood mononuclear cells (PBMCs) were isolated from venous blood with the anticoagulant citrate from healthy donors according to standard protocols using Ficoll. The cell layer of PBMCs were washed twice with phosphate buffer solution and equilibrated at room temperature for 60 minutes. 500,000 PBMCs in 180 microL RPMI1640 cell medium supplemented with 10% FCS, NEAA (Non-essential-amino-acids), L-Glutamine and Sodium Pyruvate per sample were pre-incubated with 10 microL of a serial dilution of test compound or piclamilast as positive control for 60 min. at 37° C. After pre-incubation blood samples were stimulated by the addition of 10 microL LPS (Sigma, Aldrich) per sample resulting in a final concentration of 1 ng/mL LPS and a final volume of 200 microL. Cells were incubated for 24 hours at 37° C. TNFalpha levels were determined from cell supernatant that was obtained by a centrifugation step and transferring the supernatant to a new 96-well plate. Content of TNFalpha was determined via alphaLISA Technology according to manufacture protocol (Perkin Elmer).
(§1) PBMC samples that were not stimulated with LPS were used as control and set for 100% inhibition. PBMC samples that were stimulated with LPS and solvent instead of test compound were set as 0% inhibition. Percent inhibition was calculated based on these controls for each sample and since most compounds achieved saturating maximal inhibition of 60% a pIC30 value was calculated with GraphPad Prism Software.
For the following compounds the inhibitory values of TNFalpha release [determined as −log IC30=pIC30] in human PBMCs between 5.0 and 5.9, between 6.0 and 6.9, between 7.0 and 7.9 and between 8.0 and 9.0 have been determined. The numbers of the compounds correspond to the examples numbers.
Inhibition of LPS Induced TNFalpha Release Assay in Human PBMCs: pIC30

[2] = target: T1, human prostanoid receptor EP2 (Homo sapiens, UniProt P43116); assay: EP2 cAMP release assay in CHOp6CreLuc-huEP2 cells (CRE-luciferase readout); assay type: cell-based
T1 construct: expressed in transfected cells; host or cells: CHO-K1 (CHOp6CreLuc-huEP2)
T1 sequence (P43116 whole entry): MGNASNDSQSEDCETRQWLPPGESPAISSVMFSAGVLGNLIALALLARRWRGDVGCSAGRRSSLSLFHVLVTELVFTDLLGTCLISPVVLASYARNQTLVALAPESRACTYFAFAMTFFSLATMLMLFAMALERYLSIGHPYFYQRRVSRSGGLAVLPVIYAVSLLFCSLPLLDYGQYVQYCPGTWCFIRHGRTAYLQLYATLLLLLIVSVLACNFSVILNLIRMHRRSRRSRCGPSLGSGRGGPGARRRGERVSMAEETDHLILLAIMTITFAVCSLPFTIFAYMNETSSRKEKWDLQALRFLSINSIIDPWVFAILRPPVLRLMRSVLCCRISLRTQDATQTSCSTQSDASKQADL
Protocol: Method for Measuring cAMP Release in Human EP2 Stably Transfectant Cells:
The potency and efficacy of EP2 agonists have been determined via measuring cAMP release in stably transfectant CHO-K1 cell expressing the human prostanoid receptor EP2 and luciferase enzyme regulated via a 6 times CRE (cAMP response element) containing transcriptional promoter. CHOp6CreLuc-huEP2 cells were seeded into 384-well plate (1000 cells per well) in DMEM/F12 (Dulbecco's Modified Eagle Medium/Nutrient Mixture F12) cell culture medium containing 2% FCS (Fetal Calf Serum) and 500 μg/ml G418 24 hours prior to the experiment. Test compound was added as serial dilutions while keeping the final DMSO concentration constant in each well. […] Cells were incubated together with test compound or butaprost for 4 hours at 37° C. The cAMP release was determined indirectly via luciferase activity that directly correlated to the amount of luciferase enzyme expressed in response to cAMP regulated promoter activity. The luciferase activity was determined by addition of luciferin containing buffer and subsequent quantification of resulting luminescence. Each sample was measured in quadruplicates per experiment and half-maximal effective concentration (EC50) and relative maximal effect compared to butaprost was determined from 3 independent experiments with GraphPad Prism Software. A compound that achieved over 80% of the maximal effect of butaprost was considered as full agonist.
For the following compounds the potency was determined in the cAMP release assay applying human EP2 transfectant CHOp6CreLuc-huEP2 cells. […] The numbers of the compounds correspond to the examples numbers.
EP2 cAMP Release Assay: pEC50

[3] = test system: TNFalpha release in human whole blood stimulated with LPS; assay: Inhibition of LPS induced TNFalpha release in human whole blood; assay type: cell-based; conditions: 1 microg/mL LPS, 4 hours, reported as range bins, read-out: Inhibition of LPS induced TNFalpha release in human whole blood pIC30 (-log IC30)
Protocol: Method for Measuring the Inhibition of TNFalpha Release in Human Whole Blood Stimulated with LPS:
Assay was performed with some modifications of the method described by Hatzelmann and Schudt (Hatzelmann and Schudt (2001) JPET 297: 267-279) and the protocol “drawing of venous blood from healthy volunteers for in vitro studies” was approved by the ethics committee of the Landesärztekammer Baden Württemberg in Stuttgart.
Heparinised venous blood was equilibrated to assay conditions for 1 hour at room temperature upon blood drawing. Immediately thereafter, 200 microL whole blood per sample were pre-incubated with 25 microL of a serial dilution of test compound or piclamilast as positive control for 30 min. at 37° C. After pre-incubation blood samples were stimulated by the addition of 25 microL lipopolysaccharide (LPS) (Sigma, Aldrich) per sample resulting in a final concentration of 1 microg/mL LPS and a final volume of 250 microL. Cells were incubated for 4 hours at 37° C. TNFalpha levels were determined from plasma that was obtained by a centrifugation step and transferring the supernatant to a new 96-well plate which was again centrifuged and clear plasma supernatant was used for the measurement of TNFalpha via alphaLISA Technology according to manufacture protocol (Perkin Elmer).
as §1, with “Whole blood” for “PBMC”
For the following compounds the inhibitory values of TNFalpha release [determined as −log IC30=pIC30] in the human whole blood assay between 4.5 and 4.9, between 5.0 and 5.9 and between 6.0 and 6.9 have been determined. The numbers of the compounds correspond to the examples numbers.
Inhibition of LPS Induced TNFalpha Release Assay in Human Whole Blood: pIC30

human EP2 receptor = target: T2, human EP2 receptor (Homo sapiens, UniProt P43116); assay: EP2 binding assay (PGE2 displacement)
T2 construct: purchased Millipore
T2 sequence (P43116 whole entry): as above
Protocol: Method for Measuring Inhibition of PGE2 Binding to the Human Prostanoid Receptor EP2:
Human EP2 receptor equilibrium competition binding assays were performed according to Abramovitz et al. (M. Abramovitz et al. 2000, Biochimica et Biophysica Acta 1483: 285-293) in a final incubation volume of 100 microL in 50 milliM Bis-Tris, pH6.0 in 96-well plates. Radiolabelled Prostaglandin E2 (PGE2) (1 nanoM [^3H]-PGE2 purchased from Perkin Elmer) was added to the assay as competitive ligand. Test compounds stored as Dimethylsulfoxide (DMSO) stock solutions were added to the assay in serial dilutions in assay buffer while keeping the final DMSO concentration equal in each sample. The reaction was initiated by addition of membrane proteins harbouring human EP2 receptor (ChemiSCREEN™ membrane preparation recombinant human EP2 prostanoid receptor that was purchased by Millipore). Total binding was determined in the absence of test compound or PGE2 and non-specific binding was determined in the presence of 1 microM PGE2. Incubations were conducted for 60 minutes at room temperature until equilibrium was reached and terminated by filtration through GF/B filter (Perkin Elmer) prewetted with 0.3% PEI solution. Unbound radiolabelled PGE2 was removed by 8 wash cycles with the same buffer under ice-cold conditions and the filters containing the residual radioactivity were dried for 60 minutes at 60° C. In order to measure the filter bound radioactivity, 40 microL microscint (scintillation liquid) was added to each filter and the chemiluminescence was determined by TopCount-NTX™. The specific binding was calculated by subtracting non-specific binding from each sample. Percent inhibition by test compounds was calculated based on specific binding without test compound. Each sample was measured in triplicates per experiment and for the calculation of the pIC50 at least 2 independent experiments were performed. Determination of half maximal inhibiting concentration (IC50) was performed with GraphPad Prism Software.
The numbers of the compounds correspond to the examples numbers.
EP2 Binding Assay (PGE2 Displacement): pIC50 Values

[4] = CHOp6CreLuc-huEP2 cells, 4 hours at 37° C., reported as range bins, read-out: EP2 cAMP release assay pEC50 (-log EC50) (converted)
[5] = recombinant human EP2 membranes, 1 nanoM [3H]-PGE2, reported as range bins, read-out: EP2 binding (PGE2 displacement) pIC50 (-log IC50) (converted)

## O=C(O)COc1cccc(NC(=O)c2cc(-c3ccccc3)cc3ccccc23)c1 [Example 4]
[1]
  IC30: 126 to 1000 nM
[2]; [4]
  EC50: 0.126 to 1 nM
[3]
  IC30: 12600 to 31600 nM
Human EP2 receptor; [5]
  IC50: 1.26 to 10 nM

## O=C(O)COc1ccc(F)c(NC(=O)c2cc(-c3ccccc3)cc3ccccc23)c1 [Example 5, (4-fluoro-3-{[(3-phenylnaphthalen-1-yl)carbonyl]amino}phenoxy)acetic acid]
[2]; [4]
  EC50: 0.00631 to 0.1 nM
Human EP2 receptor; [5]
  IC50: 1.26 to 10 nM

## O=C(O)COc1ccc(Cl)c(NC(=O)c2cc(-c3ccccc3)cc3ccccc23)c1 [Example 6]
[2]; [4]
  EC50: 0.00631 to 0.1 nM
Human EP2 receptor; [5]
  IC50: 12.6 to 100 nM

## O=C(O)CCc1cccc(NC(=O)c2cc(-c3ccccc3)cc3ccccc23)c1 [Example 7, 3-(3-{[(3-phenylnaphthalen-1-yl)carbonyl]amino}phenyl) propanoic acid]
[1]
  IC30: 126 to 1000 nM
[2]; [4]
  EC50: 0.126 to 1 nM
Human EP2 receptor; [5]
  IC50: 12.6 to 100 nM

## O=C(O)CCc1ccc(F)c(NC(=O)c2cc(-c3ccccc3)cc3ccccc23)c1 [Example 8, 3-(4-fluoro-3-{[(3-phenylnaphthalen-1-yl)carbonyl]amino}phenyl) propanoic acid]
[1]
  IC30: 126 to 1000 nM
[2]; [4]
  EC50: 0.126 to 1 nM
Human EP2 receptor; [5]
  IC50: 12.6 to 100 nM

## O=C(O)/C=C/c1ccc(F)c(NC(=O)c2cc(-c3ccc(F)cc3)cc3ccccc23)c1 [Example 11, (2E)-3-{3-[({3-[4-fluorophenyl]naphthalen-1-yl}carbonyl)amino]-4fluorophenyl}prop-2-enoic acid]
[2]; [4]
  EC50: 0.126 to 1 nM
Human EP2 receptor; [5]
  IC50: 1.26 to 10 nM

## O=C(O)/C=C/c1ccc(F)c(NC(=O)c2cc(-c3ccccc3CO)cc3ccccc23)c1 [Example 13, (2E)-3-{4-fluoro-3-[({3-[2-(hydroxymethyl)phenyl]naphthalen-1-yl}carbonyl)amino]phenyl}prop-2-enoic acid]
[1]
  IC30: 126 to 1000 nM
[2]; [4]
  EC50: 0.126 to 1 nM
[3]
  IC30: 126 to 1000 nM
Human EP2 receptor; [5]
  IC50: 1.26 to 10 nM

## O=C(O)/C=C/c1ccc(F)c(NC(=O)c2cc(-c3cccc(CO)c3)cc3ccccc23)c1 [Example 14, (2E)-3-{4-fluoro-3-[({3-[3-(hydroxymethyl)phenyl]naphthalen-1-yl}carbonyl)amino]phenyl}prop-2-enoic acid]
[1]
  IC30: 126 to 1000 nM
[2]; [4]
  EC50: 0.126 to 1 nM
Human EP2 receptor; [5]
  IC50: 1.26 to 10 nM

## O=C(O)/C=C/c1ccc(F)c(NC(=O)c2cc(-c3cc(O)cc(F)c3)cc3ccccc23)c1 [Example 15, (2E)-3-[4-fluoro-3-({[3-(3-fluoro-5-hydroxyphenyl)naphthalen-1yl]carbonyl}amino)phenyl]prop-2-enoic acid]
[1]
  IC30: 1 to 10 nM
[2]; [4]
  EC50: 0.00631 to 0.1 nM
[3]
  IC30: 1260 to 10000 nM
Human EP2 receptor; [5]
  IC50: 1.26 to 10 nM

## O=C(O)CCc1ccc(F)c(NC(=O)c2cc(-c3ccccc3F)cc3ccccc23)c1 [Example 16, 3-[4-fluoro-3-({[3-(2-fluorophenyl)naphthalen-1yl]carbonyl}amino)phenyl]-propanoicacid]
[1]
  IC30: 126 to 1000 nM
[2]; [4]
  EC50: 1.26 to 12.6 nM
Human EP2 receptor; [5]
  IC50: 12.6 to 100 nM

## O=C(O)CCc1ccc(F)c(NC(=O)c2cc(-c3cccc(F)c3)cc3ccccc23)c1 [Example 17, 3-[4-fluoro-3-({[3-(3-fluorophenyl)naphthalen-1-yl]carbonyl}amino)phenyl]propanoic acid]
[1]
  IC30: 126 to 1000 nM
[2]; [4]
  EC50: 0.126 to 1 nM
Human EP2 receptor; [5]
  IC50: 1.26 to 10 nM

## CC(=O)NCc1cccc(-c2cc(C(=O)Nc3cc(/C=C/C(=O)O)ccc3F)c3ccccc3c2)c1 [Example 18]
[1]
  IC30: 1260 to 10000 nM
[2]; [4]
  EC50: 1.26 to 12.6 nM

## O=C(O)/C=C/c1cccc(NC(=O)c2cc(-c3cccc(N4CCNCC4)c3)cc3ccccc23)c1 [Example 20, (2E)-3-{3[({3-[3-(piperazin-1-yl)phenyl]naphthalen-1-yl}carbonyl)amino]phenyl}prop-2-enoic acid]
[2]; [4]
  EC50: 1.26 to 12.6 nM
Human EP2 receptor; [5]
  IC50: 126 to 2000 nM

## O=C(O)/C=C/c1cccc(NC(=O)c2cc(N3CCOCC3)cc3ccccc23)c1 [Example 21, (2E)-3-[3-({[3-(morpholin-4-yl)naphthalen-1-yl]carbonyl}amino)phenyl]prop-2-enoic acid]
[1]
  IC30: 126 to 1000 nM
[2]; [4]
  EC50: 1.26 to 12.6 nM
Human EP2 receptor; [5]
  IC50: 126 to 2000 nM

## CN(C)C(=O)Oc1cccc(-c2cc(C(=O)Nc3cccc(/C=C/C(=O)O)c3)c3ccccc3c2)c1 [Example 23, (2E)-3-(3-{[(3-{3-[(dimethylcarbamoyl)oxy]phenyl}naphthalen-1-yl)carbonyl]amino}phenyl)prop-2-enoic acid]
[1]
  IC30: 126 to 1000 nM
[2]
  EC50: 1.26 to 12.6 nM
Human EP2 receptor
  IC50: 126 to 2000 nM

## CCCC1([C@H](O)C/C=C/[C@H]2[C@H](O)CC(=O)[C@@H]2CCCCCCC(=O)OC)CCC1 [butaprost, reference compound]
[2]; CHOp6CreLuc-huEP2 cells
  maximal effect of positive control relative to PGE2: same maximal effect compared to the maximal effect of PGE2
